PMC10306101, “Substrate-derived Sortase A inhibitors: targeting an essential virulence factor of Gram-positive pathogenic bacteria” (Chemical Science, 2023)
Values joined by “and” are separate entries in the source; they are usually repeats but may differ in a detail not shown here. Equal entries are not always repeated. Where two headings read alike, the source gives them in different places. Non-standard residues stand in square brackets, D forms with d. Residues, ends and D or L forms follow the SMILES beside them. *: point of attachment. Bz = O=C(c1ccccc1)*; Sar = CNCC(=O)O

Columns and labels:
SrtA [1] = biological target: T1, SrtA (Staphylococcus aureus, UniProt Q2FV99); assay: biochemical; set-up: species or system S. aureus; conditions: for FRET inhibition: 200 nM SrtA, 200 μM inhibitor, HEPES buffer; for FRET inhibition / inhibition at 200 µM: mean ± SE, triplicate; for IC50: IC50, inhibitor 1 μM to 1500 μM, corrected for molar extinction coefficient; for inhibition at 200 µM: read-out: FRET inhibition, 200 nM SrtA, 200 μM inhibitor, HEPES buffer
T1 construct: His6 (N); made in house; host or cells: E. coli BL21, pET21b plasmid
T1 sequence (Q2FV99 60-206): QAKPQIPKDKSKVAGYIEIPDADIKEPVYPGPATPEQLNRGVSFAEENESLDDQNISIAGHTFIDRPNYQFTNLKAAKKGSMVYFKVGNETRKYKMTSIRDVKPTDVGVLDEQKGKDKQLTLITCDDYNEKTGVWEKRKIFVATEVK
Protocol: In order to screen the activity of SrtA inhibitors, a FRET-based functional assay was used which employs an internally quenched fluorescent (IQF) substrate, Abz-LPETGK(Dnp)-NH2 (Fig. S37a ^†).[5] […] 5-((C4-Nitrobenzyl)thio)-1,3,4-thiadiazol-2-amine was used as a reference inhibitor in the experiment.[42] […]
Fluorescence resonance energy transfer assay
For the FRET assay, the compound 5-((4-nitrobenzyl) thio)-1,3,4-thiadiazol-2-amine was used as a reference and prepared by dissolving 3 µL of the available stock (10 mM) in […] HEPES and 1% DMSO to afford a 300 µM stock concentration for the assay. This reference compound […]
FRET assay was performed with an internally quenched fluorogenic (IQF) substrate to determine the inhibitory activity of the synthesized peptidomimetics. The assay was performed in a 30 μl reaction mixture in HEPES buffer (50 mM HEPES, 150 mM NaCl, 5 mM CaCl2, 0.05% Tween20, pH 7.5). SrtA solution (200 nM) was preincubated with compounds (200 μM) for 15 min at 22 °C followed by the addition of the substrate solution (25 μM Abz-LPETGK(Dnp)-NH2, 5 mM H-Gly3-OH, final assay concentration) in the same buffer. The cleavage of the Abz/Dnp-substrate was quantified by an increase in the fluorescence signal.
The fluorescence signal was monitored each minute for 45 minutes and plotted to obtain the fluorescence rate as a line curve. The assay was performed in 384 well Corning NBS microplates (flat bottom, no lid, low flange, non-binding surface, non-sterile, white polystyrene).
Fluorescence intensity was measured at emission and excitation wavelengths of […] using a Spectramax iD5 plate reader (Molecular Devices, San Jose, CA, USA). Triplicate measurements were taken for each data point to ensure the reproducibility of the results. The average value of the fluorescence signal readouts was plotted against time over […] for each compound to produce a line curve using Origin. The reference compound was used in the experiment to act as a positive control. The slope of each compound curve (Sx) and the slope of the substrate (S0) were extracted using the linear fit function in Microsoft Origin 2019. The percent inhibition was calculated according to the following equation: inhibitory rate = (1 – Sx/S 0) × 100%. For IC50 values, Sx values at different concentrations were plotted against log transformed concentration values and fitted with a sigmodial fit using the DoseResp function using Origin. The bottom asymptote of the dose-response curve was fixed at 0. The data were reported as mean ± SE%. […]

[2] = system: S. aureus strain CCUG10778; assay: Growth profiling of S. aureus (absorbance at 600 nm); type: cell-based; conditions: for effect on bacterial growth (absorbance plateau, OD600): 2 to 128 μg mL^−1, TSB medium, up to 48 hours
Protocol: To assess whether our most promising compounds have a possibility of being potential antivirulent compounds, they were tested with pathogenic S. aureus bacteria to assess the peptidomimetic inhibitors for their ability to inhibit bacterial growth. Firstly, our compounds were incubated with S. aureus bacteria in a 96-well plate in Tryptic Soy Broth (TSB) medium, while we also included the reference compound used in the single-point in vitro inhibition studies. So far, the covalent binding thiadiazol reference compound was not tested in this respect, but was one of the most promising compounds identified in an earlier screening campaign.[42] The inhibitors were added at various concentrations, ranging from 2 μg mL^−1 to 128 μg mL^−1, and the absorbance at 600 nm was measured as an indication of their optical density (OD600) and by that the bacteria's ability to propagate in liquid media. In the negative control experiments, the bacteria consistently reached an OD600 of 0.6 between 6 and 12 hours (Fig. 3). […]
For the growth profiling experiments the S. aureus strain CCUG10778 was cultured overnight in sterile TSB medium and diluted 1:100 by adding 1 μL into TSB medium in a sterilized, clear polystyrene 96-well plate to a final assay volume of 100 μL. Subsequently, peptides were added to the bacteria from filter sterilized stocks in MQ-H2O to give 2, 8, 32 and 128 μg/ml final concentrations. Then, bacteria were incubated at 37 °C for 3, 6, 12, 24, 36 or 48 hours and their absorbance was measured at 600 nm using a Varioskan Lux microplate reader (Thermo Fisher Scientific, Waltham, MA, USA). All individual samples were carried out in triplicate. […]
Then, bacteria […]
were incubated at 37 °C for 24 hours and centrifuged for 3 minutes at 3000 rpm in an Eppendorf Microstar 30r centrifuge. The supernatant was discarded and the cells were washed once with sterilized PBS and centrifuged. 100 μL PBS-T (PBS + 0.1% Triton-X) was added to the cells for 15 minutes to induce cell membrane permeabilization. After removal of the PBS-T by centrifugation, 100 μL of 5 μM Sytox Green (Invitrogen, Waltham, MA, USA) solution in PBS

SrtA [3] = biological target: T1, SrtA; type: biochemical, S. aureus; conditions: 200 nM SrtA, inhibitor at 10 μM (detector oversaturation at 200 μM)
S. aureus = assay: Sytox Green fluorescence measurement of S. aureus incubated with inhibitors; type: cell-based; conditions: for Fluorescence value (Sytox Green, 533 nm): 24 hours, control 294.0 ± 0.1
Protocol: To achieve this, S. aureus was again incubated with our peptidomimetic inhibitors, specifically, 18, 22, 23 and 24 at 8, 32 and 128 μg mL^−1 and harvested after 24 hours to ensure the bacteria reach their growth plateau. Peptide 24 was included to confirm the influence of the N-terminal benzyl group. The bacterial cells were permeabilized and their […] were labelled using Sytox Green and subsequently their fluorescence was measured quantitatively. […] Bacteria incubated with 32 and 128 μg mL^−1 of 18 as well as 128 μg mL^−1 of 22 were also imaged using fluorescence microscopy (Fig. 4). In the control sample, planktonic bacteria could be abundantly observed (Fig. 4a). While it was hard to distinguish the microscopy images for the less strong inhibition (Fig. 4b and c), it became evident from the sample with 128 μg mL^−1 of 18 that visually bacterial growth was affected as well (Fig. 4d) where the bacteria were much more sparsely distributed in the sample. […]
For the fluorescence experiments S. aureus was cultured overnight in sterile TSB medium and diluted 1:250 by adding 2.5 μL bacterial culture into TSB medium in sterilized 1.5 mL Eppendorf tubes to a final volume of 500 μL. Subsequently, peptides were added to the bacteria from filter sterilized stocks in MQ-H2O to give 8, 32 and 128 μg/ml final concentrations. Then, bacteria were incubated at 37 °C for 24 hours and centrifuged for 3 minutes at 3000 rpm in an Eppendorf Microstar 30r centrifuge. The supernatant was discarded and the cells were washed once with sterilized PBS and centrifuged. 100 μL PBS-T (PBS + 0.1% Triton-X) was added to the cells for 15 minutes to induce cell membrane permeabilization. After removal of the PBS-T by centrifugation, 100 μL of 5 μM Sytox Green (Invitrogen, Waltham, MA, USA) solution in PBS […]
was added and the cells were stained for 30 minutes, centrifuged and washed with PBS twice.
For the fluorescence measurements, the cells were resuspended with 100 μL of PBS and added in a sterilized, white plastic polystyrene 96-well plate and their fluorescence was measured by exciting the samples at 488nm and measuring the fluorescence intensity at 533 nm in a microplate reader. All individual samples were carried out in duplicate. For the fluorescence microscopy experiments, the cells were treated in the same, but resuspended in 10 μL of PBS and 5 μL of bacterial suspension was spotted on a glass target plate dipped in a melted solution of 1.2% agarose in Tris-HCl (50 mM) to ensure fixation of the sample. The sledes were covered by a cover glass and observed on an Axio Imager Z2m fluorescence microscope (Zeiss, Jena, Germany) at 100 times magnification at the emission wavelength of […]
Biofilm inhibition assays
For the biofilm inhibition experiments the S. aureus strain CCUG10778 was cultured overnight in sterile BHI broth. A sterilized, clear polystyrene 96-well plate was prepared by coating with plasma by addition of 20% of final assay volume rabbit plasma to the wells and incubating overnight at 4 °C. Then, the cultured strain was diluted 1:100 by adding 2 μL into BHI medium on the plasma coated plate to a total volume of 200 μL. Subsequently, peptides were added to the bacteria from filter sterilized stocks in MQ-H2O to give 8, 32 and 128 μg/ml final concentrations and incubated for 12 hours at 37 °C without shaking. The supernatant was removed and the wells were rinsed with PBS and 100 μL of 1% crystal violet solution (diluted in PBS) was added and the biofilms were stained for 10 minutes. The wells were washed with PBS twice and 200 μL of a 95% ethanol solution in water was added to solubilize the cells for 30 minutes. 100 μL was transferred into a new 96-well plate and the absorbance measured at 595 nm using a Varioskan Lux microplate reader. All individual samples were carried out in […]
All computational studies and analysis steps were performed employing the YASARA molecular modeling program.6, 7
Molecular graphics were created with YASARA (www.yasara.org) and POVRay […]

SrtA [4] = conditions: cited from earlier work
[5] = system: S. aureus strain CCUG10778 biofilm; conditions: BHI, rabbit plasma coated plate

Ado-LPRDA [Compound 3]
FRET inhibition (SrtA [1]): 22.6 ± 2.8%

LPET-Sar [Compound 6]
FRET inhibition (SrtA [1]): 19.4 ± 2.6%

AcLPRDA [Compound 10]
FRET inhibition (SrtA [1]): 20.7 ± 2.9%

ChLPRDA [Compound 12]
FRET inhibition (SrtA [1]): 21.6 ± 4.2%

H-LPETP-NH2 [Compound 7, LPETP]
IC50 (SrtA [1]): 136.3 ± 1.2 µM

ELPRDA [Compound 27]
FRET inhibition (SrtA [1]): 26% and 26.2 ± 2.0%

2NapLPRDA [Compound 13]
effect on bacterial growth (absorbance plateau, OD600) [2]: did not have any effect | FRET inhibition (SrtA [3]): 47% and 47.4 ± 1.1 (at 10 μM) %

CbzLPRDA [Compound 14]
FRET inhibition (SrtA [1]): 17.0 ± 2.8%

GTEPL [Compound 9]
FRET inhibition (SrtA [1]): 38% and 37.7 ± 3.1%

CC(C)C[C@H](NC(=O)c1ccccc1)C(=O)N1CCC[C@H]1C(=O)N[C@@H](CCCNC(=N)N)C(=O)N[C@@H](CC(=O)O)C(=O)N[C@@H](Cc1ccccc1)C(N)=O [Compound 23, BzLPRDF] (Bz-LPRDF-NH2)
IC50 (SrtA [1]): 114 ± 1.3 µM | inhibition at 200 µM (SrtA [1]): 113 ± 26%

BzLPETP [Compound 19]
FRET inhibition (SrtA [1]): 15.1 ± 3.8%

H-FLPRDA-NH2 [Compound 22, FLPRDA]
decrease in absorbance compared to the control ([2]; 128 μg mL^−1, 48 hours, OD600): 22% | effect on bacterial growth (absorbance plateau, OD600) [2]: clear effect on the plateau of the absorbance | Fluorescence value (Sytox Green, 533 nm) (S. aureus; 8 μg/ml): 302.3 ± 0.5 | Fluorescence value (Sytox Green, 533 nm) (S. aureus; 32 μg/ml): 297.4 ± 0.3 | decrease in fluorescence signal (in words) (S. aureus; 128 μg mL^−1, 24 hours): minor effect | Fluorescence value (Sytox Green, 533 nm) (S. aureus; 128 μg/ml): 275.2 ± 1.1 | FRET inhibition (SrtA [1]): 70.1 ± 5.7% | IC50 (SrtA [1]): 185.3 ± 1.5 µM | inhibition at 200 µM (SrtA [1]): 70%

Nc1nnc(SCc2ccc([N+](=O)[O-])cc2)s1 [Reference (0), 5-((4-nitrobenzyl)thio)-1,3,4-thiadiazol-2-amine, reference compound]
IC50 (SrtA [4]; reported covalent inhibitor, ref 42 (supplement ref 4)): 26 ± 0.7 µM | IC50 (SrtA [4]; reported covalent inhibitor, ref 42 (supplement ref 4), listed as 5-((C4-Nitrobenzyl)thio)-1,3,4-thiadiazol-2-amine): ~26 µM | effect on bacterial growth (absorbance plateau, OD600) [2]: did not show any activity | FRET inhibition (SrtA [1]): 77.1 ± 4.1%

H-LPRDF-NH2 [Compound 24, LPRDF]
Fluorescence value (Sytox Green, 533 nm) (S. aureus; 8 μg/ml): 315.7 ± 0.6 | Fluorescence value (Sytox Green, 533 nm) (S. aureus; 32 μg/ml): 299.9 ± 1.2 | Fluorescence value (Sytox Green, 533 nm) (S. aureus; 128 μg/ml): 283.0 ± 0.9 | IC50 (SrtA [1]): 136.9 ± 1.2 µM | inhibition at 200 µM (SrtA [1]): 42.2 ± 6%

LPRDA-Ado [Compound 2]
FRET inhibition (SrtA [1]): 30.4 ± 2.8%

KSFLPATGGAE [Compound 8]
FRET inhibition (SrtA [1]): 18% and 18.1 ± 2.9%

H2N-LPRDA-OH [Compound 1]
FRET inhibition (SrtA [1]): 29.2 ± 2.6%

CC(C)C[C@H](NC(=O)c1ccccc1)C(=O)N1CCC[C@H]1C(=O)N[C@@H](CCCNC(=N)N)C(=O)N[C@@H](CC(=O)O)C(=O)N(C)CC(N)=O [Compound 18, BzLPRDSar] (Bz-LPRD[Sar]-NH2)
biofilm inhibition ([5]; 8 μg mL^−1, 12 hours): 52% | biofilm inhibition ([5]; 32 μg mL^−1, 12 hours): 73% | biofilm inhibition ([5]; 128 μg mL^−1, 12 hours): 95% | IC50 (SrtA [1]): 57.4 ± 1.1 µM | inhibition at 200 µM (SrtA [1]): 108 ± 6.9%

PEG2000-LPRDA-NH2
IC50 (SrtA [4]; reported SrtA inhibitor): 10.6 µM

BzLPRDA [Compound 11]
FRET inhibition (SrtA [1]): 37% and 37.2 ± 3.1%

CC(C)C[C@H](N)C(=O)N1CCC[C@H]1C(=O)N[C@@H](CCCNC(=N)N)C(=O)N[C@@H](CC(=O)O)C(=O)N(C)CC(N)=O [Compound 5, LPRD-Sar] (H-LPRD[Sar]-NH2)
FRET inhibition (SrtA [1]): 68.5 ± 2.6% | IC50 (SrtA [1]): 18.9 ± 1.2 µM | inhibition at 200 µM (SrtA [1]): 69%

LPRDP [Compound 20]
FRET inhibition (SrtA [1]): 32% and 32.3 ± 8.7%

BzLPRDP [Compound 21]
FRET inhibition (SrtA [1]): 31.0 ± 7.6%
